ChEMBL document CHEMBL5727031, “Metabotropic glutamate receptor negative allosteric modulators (NAMS) and uses thereof” (2018)
pEC50: −log10 of the molar value.

What was measured:
[1] = (§1) In Vitro GIRK Thallium Flux Assay (60 minutes): Human Embryonic Kidney (HEK-293) cell lines co-expressing rat mGlu receptors 2, 3, 4, 6, 7 or 8 and G protein-coupled inwardly-rectifying potassium (GIRK) channels_ENREF_54 were grown in Growth Media containing 45% DMEM, 45% F-12, 10% FBS, 20 mM HEPES, 2 mM L-glutamine, antibiotic/antimycotic, non-essential amino acids, 700 μg/ml G418, and 0.6 μg/ml puromycin at 37° C. in the presence of 5% CO2. All cell culture reagents were purchased from Invitrogen Corp. (Carlsbad, Calif.) unless otherwise noted. Compound activity at the group II (mGlu2 and mGlu3) mGlus was assessed using thallium flux through GIRK channels. Briefly, cells were plated into 384-well, black-walled, clear-bottomed poly-D-lysine-coated plates at a density of 15,000 cells/20 μL/well in DMEM containing 10% dialyzed FBS, 20 mM HEPES, and 100 units/mL penicillin/streptomycin (assay media). Plated cells were incubated overnight at 37° C. in the presence of 5% CO2. The following day, the medium was exchanged from the cells to assay buffer [Hanks' balanced salt solution (Invitrogen) containing 20 mM HEPES, pH 7.3] using an ELX405 microplate washer (BioTek), leaving 20 μL/well, followed by the addition of 20 μL/well FluoZin2-AM (330 nM final concentration) indicator dye (Invitrogen; prepared as a stock in DMSO and mixed in a 1:1 ratio with Pluronic acid F-127) in assay buffer. Cells were incubated for 1 h at room temperature, and the dye exchanged to assay buffer using an ELX405, leaving 20 μL/well. Test compounds were diluted to 2 times their final desired concentration in assay buffer (0.3% DMSO final concentration). Agonists were diluted in thallium buffer [125 mM sodium bicarbonate (added fresh the morning of the experiment), 1 mM magnesium sulfate, 1.8 mM calcium sulfate, 5 mM glucose, 12 mM thallium sulfate, and 10 mM HEPES, pH 7.3] at 5 times the final concentration to be assayed. Cell plates and compound plates were loaded onto a kinetic imaging plate reader (FDSS 6000 or 7000; Hamamatsu Corporation, Bridgewater, N.J.). Appropriate baseline readings were taken (10 images at 1 Hz; excitation, 470±20 nm; emission, 540±30 nm) and test compounds were added in a 20 μL volume and incubated for either 2.5 min or 60 min as indicated before the addition of 10 μL of thallium buffer with or without agonist. After the addition of agonist, data were collected for approximately an additional 60 min. Data were analyzed using Excel (Microsoft Corp, Redmond, Wash.). The slope of the fluorescence increase beginning 5 s after thallium/agonist addition and ending 15 s after thallium/agonist addition was calculated, corrected to vehicle and maximal agonist control slope values, and plotted in using either XLfit (ID Business Solutions Ltd) or Prism software (GraphPad Software, San Diego, Calif.) to generate concentration-response curves. Potencies were calculated from fits using a four-point parameter logistic equation. For concentration-response curve experiments, compounds were serially diluted 1:3 into 10 point concentration response curves and were transferred to daughter plates using an Echo acoustic plate reformatter (Labcyte, Sunnyvale, Calif.). Test compounds were applied and followed by EC80 concentrations of glutamate.
[2] = as §1; remark: listed apart in the source
[3] = as §1, with “Assay (2.5” for “Assay (60”, “additional 2.5” for “additional 60”
[4] = as above; remark: listed apart in the source

| Compound | pEC50 ([1]; HEK293, 1 h) | pEC50 ([2]; HEK293, 1 h) | pEC50 ([4]; HEK293, 2.5 min) | other results |
| --- | --- | --- | --- | --- |
| O=C(O)c1ccccc1-c1cccc(-c2csc(-c3ccccc3)n2)c1 | < 5.00 | < 5.00 |  |  |
| O=C(O)c1cccc(-c2cccc(-c3coc(-c4ccccc4)n3)c2)c1 |  | < 5.00 |  |  |
| O=C(O)c1cc(-c2ccc(-c3csc(-c4ccccc4)n3)cc2)ccc1F | < 4.52 |  |  |  |
| O=C1CC(c2cccc(Br)c2)Nc2ccc(NC(=O)OCc3ccccc3)cc2N1 (stereo not given) | < 5.00 |  |  |  |
| Fc1ccc(-c2cccc(-c3csc(-c4cc5ccccc5o4)n3)c2)cc1 | 5.71 | < 5.00 | 5.59 | pEC50 ([3]; HEK293, 2.5 min): 5.48 |
| O=C(O)c1ccccc1-c1cccc(-c2nc(-c3ccccc3)n(-c3ccccc3)n2)c1 | < 4.52 | < 5.00 |  |  |
| O=C(O)c1cc(-c2cccc(Oc3nc(-c4ccco4)cc(C(F)(F)F)n3)c2)ccc1F | < 4.52 |  |  |  |
| Fc1ccccc1-c1cccc(-c2csc(-c3ccccc3)n2)c1 | 5.47 | < 4.52 | 5.80 | pEC50 ([3]; HEK293, 2.5 min): < 4.52 |
| Fc1ccc(-c2cccc(-c3csc(-c4cc5ccccc5s4)n3)c2)cc1 | 5.72 | < 5.00 | < 5.00 | pEC50 ([3]; HEK293, 2.5 min): < 5.00 |
| Fc1ccc(-c2ccc(-c3csc(-c4ccccc4)n3)s2)cc1 | < 5.00 | < 5.00 | < 5.00 | pEC50 ([3]; HEK293, 2.5 min): < 5.00 |
| COc1ccc(-c2cccc(-c3nc(-c4ccco4)cc(C(F)(F)F)n3)c2)cc1C(=O)O |  | < 5.00 |  |  |
| Fc1ccc(-c2cccc(-c3csc(-c4ccc(C(F)(F)F)nc4)n3)c2)cc1 | 6.07 | 5.59 | 5.87 | pEC50 ([3]; HEK293, 2.5 min): 5.51 |
| NS(=O)(=O)c1cccc(-c2cn(-c3nc(-c4ccc(C(F)(F)F)nc4)cc(C(F)(F)F)n3)cn2)c1 | < 5.00 |  |  |  |
| Cc1ccccc1-c1cc(C(F)(F)F)nc(-c2cccc(-c3ccc(F)c(C(=O)O)c3)c2)n1 |  | < 5.00 |  |  |
| CC(C)(C)OC(=O)Nc1ccc(C(=O)OC(C)(C)C)cc1NC(=O)CC(=O)c1ccnc(C#N)c1 | < 4.52 |  |  |  |
| O=C(O)c1ccccc1-c1cccc(-c2nc(-c3ccc(C(F)(F)F)nc3)cc(C(F)(F)F)n2)c1 | < 5.00 | < 5.00 |  |  |
| Cc1cc2c(cc1C(F)(F)F)NC(=O)CC(c1cccc(Br)c1)=N2 | < 5.00 | < 5.00 |  |  |
| Fc1ccc(-c2cccc(-c3csc(-c4ccccc4)n3)c2)cc1 | 6.32 | < 5.00 | 6.48 | pEC50 ([3]; HEK293, 2.5 min): 5.92 |
| Fc1cccc(-c2cccc(-c3csc(-c4ccccc4)n3)c2)c1 | 6.46 | < 4.52 | 6.19 | pEC50 ([3]; HEK293, 2.5 min): < 5.00 |
| c1ccc(-c2cccc(-c3csc(-c4ccccc4)n3)c2)cc1 |  | < 5.00 |  |  |
| c1ccc(-c2cccc(-c3nc(-c4ccccc4)n(-c4ccccc4)n3)c2)cc1 | < 5.00 |  | < 5.00 |  |
| Fc1ccc(-c2cccc(-c3csc(-c4ccco4)n3)c2)cc1 | < 5.00 | < 4.52 | 5.62 | pEC50 ([3]; HEK293, 2.5 min): < 5.00 |
| O=[N+]([O-])c1cccc(-c2cccc(-c3csc(-c4ccccc4)n3)c2)c1 | < 5.00 | < 4.52 | < 5.00 | pEC50 ([3]; HEK293, 2.5 min): < 5.00 |
| Cc1nc(-c2cccc(-c3ccc(F)cc3)c2)cs1 | < 5.00 | < 5.00 | < 5.00 | pEC50 ([3]; HEK293, 2.5 min): < 5.00 |

| Compound | pEC50 ([1]; HEK293, 1 h) | pEC50 ([2]; HEK293, 1 h) | pEC50 ([4]; HEK293, 2.5 min) | other results |
| --- | --- | --- | --- | --- |
| Cc1cc2c(cc1C(F)(F)F)NC(=O)CC(c1cccc(C#C[Si](C)(C)C)c1)N2 (stereo not given) | 5.35 | 5.34 |  |  |
| O=C(O)c1cccc(-c2cccc(-c3nc(-c4ccccc4)nn3-c3ccccc3)c2)c1 | < 5.00 | < 5.00 |  |  |
| Cc1cc2c(cc1C(F)(F)F)NC(=O)CC(c1cccc(C#Cc3ccccc3)c1)=N2 | < 5.00 | < 5.00 |  |  |
| O=C(O)c1cccc(-c2cccc(-c3cn(-c4ccccc4)c(-c4ccccc4)n3)c2)c1 | < 5.00 |  |  |  |
| Cc1cc2c(cc1C(F)(F)F)NC(=O)CC(c1cccc(Oc3cccc(Br)c3)c1)=N2 | < 5.00 |  |  |  |
| O=C(O)c1cc(F)cc(-c2cccc(-c3nc(-c4ccoc4)cc(C(F)(F)F)n3)c2)c1 |  |  |  | pEC50 [1]: 6.51; pEC50 [2]: 5.81; pEC50 [3]: 5.66; pEC50 [4]: 6.46 |
| c1ccc(-c2nc(-c3cccc(-c4cccc(-c5nn[nH]n5)c4)c3)cs2)cc1 |  | < 5.00 |  |  |
| Cc1cc(NC(=O)OC(C)(C)C)c(NC(=O)CC(=O)c2cccc(-n3ccc4ccccc43)c2)cc1C(F)(F)F | < 5.00 | < 5.00 |  |  |
| O=C(O)c1cccc(-c2cccc(-c3cc(-c4ccccc4)sn3)c2)c1 |  | < 5.00 |  |  |
| Cc1cc2c(cc1C(F)(F)F)NC(=O)CC(c1cccc(Oc3ccccc3)c1)N2 (stereo not given) | < 5.00 | < 5.00 |  |  |
| O=C(O)c1cc(-c2cccc(-c3nc(-c4cc(C(F)(F)F)cc(C(F)(F)F)c4)cc(C(F)(F)F)n3)c2)ccc1F |  | < 5.00 |  |  |
| Fc1ccc(-c2cccc(-c3csc(-c4ccoc4)n3)c2)cc1 | 5.60 | < 5.00 | 5.65 | pEC50 ([3]; HEK293, 2.5 min): < 5.00 |
| O=C(O)c1ccc(-c2cccc(-c3nc(-c4ccc(C(F)(F)F)nc4)cc(C(F)(F)F)n3)c2)cc1 | < 5.00 | < 5.00 |  |  |
| Cc1cc2c(cc1C(F)(F)F)NC(=O)CC(c1cccc(Oc3cc(F)cc(F)c3)c1)=N2 | < 5.00 |  |  |  |
| COc1ccc(-c2cccc(-c3csc(-c4ccccc4)n3)c2)cc1 | 5.67 | 5.54 | 5.76 | pEC50 ([3]; HEK293, 2.5 min): 5.75 |
| Cc1noc(C)c1-c1cc(C(F)(F)F)nc(-c2cccc(-c3ccc(F)c(C(=O)O)c3)c2)n1 | < 5.00 | < 5.00 |  |  |
| O=C1CC(c2ccnc(Br)c2)=Nc2ccc(-c3ccc(C(F)(F)F)cc3C(F)(F)F)cc2N1 |  | < 5.00 |  |  |
| Cc1cc(-c2cccc(C3CC(=O)Nc4cc(NC(=O)Oc5ccccc5)ccc4N3)c2)cc(C)n1 (stereo not given) | < 5.00 | < 5.00 |  |  |
| O=C(O)c1cc(-c2cccc(-c3cnc(-c4ccccc4)s3)c2)ccc1F |  | < 5.00 |  |  |
| N#Cc1cccc(C2=Nc3ccc(Br)cc3NC(=O)C2)c1 | < 4.52 | < 4.52 |  |  |
| Cc1cc2c(cc1C(F)(F)F)NC(=O)CC(c1cccc(OCc3ccccc3)c1)N2 (stereo not given) | < 5.00 |  |  |  |
| Cc1cc2c(cc1C(F)(F)F)NC(=O)CC(c1cccc(Oc3ncccn3)c1)N2 (racemic) |  |  | < 5.00 |  |
| Cc1cc(-c2cccc(C3CC(=O)Nc4cc(NC(=O)OCc5ccccc5)ccc4N3)c2)cc(C)n1 (racemic) |  |  | < 5.00 |  |
